Measurements: patent US8586622B2, “Laminin-332 product on stimulating composition” (Shiseido Company, Ltd., priority 2009, dated 2013)
Where two headings read alike, the source gives them in different places.

Legend:
[1] = tested on: laminin-332 production in HaCaT cells; experiment: Laminin-332 concentration in HaCaT culture supernatant after addition of various amino acids, Example 2; format: cell-based, human; conditions: for effect on stimulating production of laminin-332 (conclusion in words): Examples 1 and 2, KC and HaCaT cells; for concentration of laminin-332 in the culture supernatant / stimulation of the production of laminin-332 (in words): HaCaT cells; for concentration of laminin-332 in the culture supernatant: 24 hours, negative control 1.5-1.8 ng/mL; for stimulation of the production of laminin-332 (in words): 10 nM, 100 nM, 1000 nM
Procedure: (§1) After completing the cell culture, culture medium was collected and centrifuged at 3000 rpm for five minutes. Concentration of laminin-332 in the supernatant was measured by ELISA (Amano, S., et al., J. Immunol. Methods, 224:161 (1999)). The ELISA used was sandwich type which utilizes biotinylated conjugate of BM165, i.e., a monoclonal antibody against α (alpha) 3 chain of laminin-5, and 6F12, i.e., a monoclonal antibody against β (beta)3 chain of laminin-5, and detection was carried out by utilizing avidin D labeled with a horseradish peroxidase (Vector Laboratories, Catalogue No. A-2004). PBS was used as a control.
Cell culture was carried out in the same manner as the Example 1 by using HaCaT cells. After that, the medium was switched to the standard medium added with amino acids such as L- or D-alanine, L- or D-hydroxyproline, L- or D-aspartic acid, L- or D-asparagine, L- or D-proline, or L- or D-serine with the concentration of 10 nM, 100 nM, or 1000 nM, and cultured for 24 hours. The standard medium to which no amino acid had been added was used as a negative control. […] The production amount of laminin-332 was measured in the same manner as the Example 1.
The vertical line of the graph in FIG. 7 represents the concentrations (ng/mL) of laminin-332 in the culture supernatant in each well. The error bars for each experimental condition indicate the standard deviations of experimentally measured values obtained by repeating the experiment four times under the identical condition.

[2] = tested on: laminin-332 production in HaCaT cells; experiment: Laminin-332 production in HaCaT cells (sandwich ELISA, relative to cell number), Example 1; format: cell-based, human; conditions: 1 μM; for relative value of laminin-332 concentration compared to the number of cells: 24 hours, negative control 0.04
Procedure: as §1
The vertical line of the graph in FIG. 5 represents, the relative values of laminin-332 concentration compared to the number of cells that are present in culture supernatant in each well. The error bars for each experimental condition indicate the standard deviations of experimentally measured values obtained by repeating the experiment three times under the identical condition.

[3] = tested on: HaCaT cells; experiment: Quantification of number of viable HaCaT cells (alamarBlue); conditions: for fluorescence intensity of alamarBlue: 1 μM
Procedure: (§2) Human epidermal-derived HaCaT cells (H. Hans, et al., Experimental Cell Research, 239:399 (1998)) and human keratinocyte-derived KC cells (Sanko Junyaku Co., Ltd., manufacturer: LONZA Walkersville Inc.) were used. The cells were inoculated to a 24-well plate to have 4×10^4 cells per well. The cells were then cultured for 24 hours in a medium for cell culture (D-MEM (1 g/L glucose), manufactured by Wako Pure Chemical Industries, Ltd.) to which 0.1% bovine serum albumin (BSA) is supplemented (hereinafter, referred to as a “standard medium”) in a 5% CO2 and saturated water vapor atmosphere at 37° C. (degrees Celsius).
(§3) D-hydroxyproline used in this example was 4-cis-D-hydroxyproline.
(§4) After collecting the culture medium, the cells were washed with PBS and added with alamarBlue (trademark: Biosource International, Inc.) to have final concentration of 10%. Two hours later, according to the methods by Ahmed S. A. et al., (J. Immunol. Method., 170, 211-224 (1994)) and the instructions provided by the manufacturer, fluorescent intensity of the alamarBlue solution was measured with excitation wavelength of 544 nm and emission wavelength of 590 nm.

[4] = tested on: laminin-332 production in KC cells; experiment: Laminin-332 production in KC cells (sandwich ELISA of culture supernatant, relative to cell number); format: cell-based, human; conditions: 1 μM; for relative value of laminin-332 concentration compared to the number of cells: 24 hours, negative control 0.35
Procedure: as §2, §3
PBS was used as a control.
as §4

[5] = tested on: KC cells; experiment: Quantification of number of viable KC cells (alamarBlue); format: cell-based, human; conditions: for relative fluorescence intensity of alamarBlue: 1 μM, 24 hours, negative control 50; for cytotoxicity against KC cells: alamarBlue, no significant difference to negative control by Tukey-Kramer's test
Procedure: as §2, §3, §4

[6] = HaCaT cells, 24 hours, negative control 300
[7] = HaCaT cells, alamarBlue, no significant difference to negative control by Tukey-Kramer's test

Structure (SMILES) | effect on stimulating production of laminin-332 (conclusion in words) [1] | concentration of laminin-332 in the culture supernatant ([1]; amino acid 10 nM) [ng/mL] | concentration of laminin-332 in the culture supernatant ([1]; amino acid 100 nM) [ng/mL] | concentration of laminin-332 in the culture supernatant ([1]; amino acid 1000 nM) [ng/mL] | relative value of laminin-332 concentration compared to the number of cells [2] | fluorescence intensity of alamarBlue [3, 6] | cytotoxicity for HaCaT cells [3, 7] | stimulation of laminin-332 production in HaCaT cells (in words) ([2]; p less than 1% vs negative control by Scheffe's F test) | relative value of laminin-332 concentration compared to the number of cells [4] | stimulation of laminin-332 production in KC cells (in words) ([4]; p less than 1% vs negative control by Tukey-Kramer's test) | cytotoxicity for HaCaT cells [3] | fluorescence intensity of alamarBlue ([3]; human, 24 h) | relative fluorescence intensity of alamarBlue [5] | cytotoxicity against KC cells [5] | stimulation of the production of laminin-332 (in words) [1]
O=C(O)[C@H]1C[C@@H](O)CN1 (relative stereo) [D-hydroxyproline, 4-cis-D-hydroxyproline] | effect on stimulating production of laminin-332 was observed | 1.5 | 3.3 | 4.4 | 0.065 | 280 | no cytotoxicity | – | – | – | – | – | – | – | –
C[C@@H](N)C(=O)O [D-alanine] | effect on stimulating production of laminin-332 was observed | 1.7 | 3.4 | 4.8 | 0.11 | – | – | stimulated production of laminin-332 | 0.50 | stimulated production of laminin-332 | no cytotoxicity | 250 | 45 | no cytotoxicity | –
NC(=O)C[C@@H](N)C(=O)O [D-asparagine] | – | 1.5 | 1.5 | 1.5 | – | – | – | – | – | – | – | – | – | – | do not stimulate the production of laminin-332
N[C@H](CC(=O)O)C(=O)O [D-aspartic acid] | – | 1.9 | 1.9 | 1.7 | – | – | – | – | – | – | – | – | – | – | do not stimulate the production of laminin-332
O=C(O)[C@H]1CCCN1 [D-proline] | – | 2.0 | 1.9 | 1.9 | – | – | – | – | – | – | – | – | – | – | do not stimulate the production of laminin-332
N[C@H](CO)C(=O)O [D-serine] | – | 1.8 | 1.8 | 1.8 | – | – | – | – | – | – | – | – | – | – | do not stimulate the production of laminin-332
C[C@H](N)C(=O)O [L-alanine] | – | 1.7 | 2.3 | 2.8 | 0.07 | – | – | – | 0.40 | – | no cytotoxicity | 250 | 40 | no cytotoxicity | –
NC(=O)C[C@H](N)C(=O)O [L-asparagine] | – | 1.6 | 1.5 | 1.6 | – | – | – | – | – | – | – | – | – | – | do not stimulate the production of laminin-332
N[C@@H](CC(=O)O)C(=O)O [L-aspartic acid] | – | 1.8 | 1.8 | 2.0 | – | – | – | – | – | – | – | – | – | – | do not stimulate the production of laminin-332
O=C(O)[C@@H]1C[C@@H](O)CN1 [L-hydroxyproline] | – | 1.5 | 2.3 | 2.7 | 0.05 | 280 | no cytotoxicity | – | – | – | – | – | – | – | –
O=C(O)[C@@H]1CCCN1 [L-proline] | – | 1.8 | 1.9 | 1.9 | – | – | – | – | – | – | – | – | – | – | do not stimulate the production of laminin-332
N[C@@H](CO)C(=O)O [L-serine] | – | 1.8 | 1.9 | 1.9 | – | – | – | – | – | – | – | – | – | – | do not stimulate the production of laminin-332
